From patent publication US20070060533A1, “Novel inhibitor of the formation of advanced glycation end product and aldose reductase inhibitor” (Meiji Seika Kaisha Ltd., priority 2003, published 2007)

Key:
aldose reductase = target: T1, aldose reductase (Rattus norvegicus, UniProt P07943); experiment: Aldose-reductase-inhibiting activity test (rat lens crude enzyme); assay type: biochemical, Wistar male rats; conditions: DL glycerylaldehyde substrate, pH 7.0, 30° C.
T1 construct: the supernatant was used as a crude enzyme solution; from tissue; host or cells: lenses of Wistar male rats
Protocol: The test was conducted by a partially modified version of the method of Dufrane et al (Dufrane S. P. et al., Biochem. Med., 32, 99-105 (1984)). Specifically, the lenses of Wistar male rats were homogenized with 10 mmol/L 2-mercapto ethanol. The resultant was centrifuged, and then the supernatant was used as a crude enzyme solution. Each test substance was dissolved in DMSO and then added to a 180 mmol/L phosphate buffer (pH 7.0). 100 mmol/L lithium sulfate and 0.03 mmol/L NADPH were further added to the solution to initiate a reaction at 30° C. using 1 mmol/L DL glycerylaldehyde as a substrate. 0.5 mol/L HCl was added to stop the reaction. 6 mol/L sodium hydroxide containing 10 mmol/L imidazole was added to the solution. The solution was heated for 20 minutes at 60° C. to convert NADP to a fluorescent substance. The thus generated fluorescent substance was subjected to measurement using a fluorospectrophotometer. 50% inhibition concentration (IC50) was calculated using the thus obtained value.
(§1) The test substances used herein were the anthocyanin-containing composition prepared in Example 1 and 4 types of crystalline anthocyanin prepared in Example 2.

AGE formation = AGE formation suppression test (glucose + bovine serum albumin, fluorescence); assay type: biochemical; conditions: 67 mmol/L phosphate buffer pH 7.2, 60° C., 48 hours
Protocol: The test was conducted by a partially modified version of the method of Morimitu et al (Morimitu. Y. et. al., Biosci. Biotech. Biochem., 59, 2018-2021 (1995)). Specifically, glucose, each test substance dissolved in DMSO, and bovine serum albumin were incubated in a 67 mmol/L phosphate buffer (pH 7.2) at 60° C. for 48 hours. AGE was thus sufficiently formed by incubation. The amount of formed AGE was discovered by dilution of the reaction solution followed by measurement using a fluorospectrophotometer. The 50% inhibition concentration (IC50) was calculated using the thus obtained value. The lower the IC50, the higher the AGE-inhibiting activity. This indicates the usefulness of a substance as an inhibitor.
as §1

Compound | IC50 (aldose reductase) | IC50 (AGE formation)
CC1OC(OCC2OC(Oc3cc4c(O)cc(O)cc4[o+]c3-c3cc(O)c(O)c(O)c3)C(O)C(O)C2O)C(O)C(O)C1O (stereo not shown) [Example 2 (D3R), delphinidin-3-O-rutinoside] | 15.2 µM | 163 µM
OCC1OC(Oc2cc3c(O)cc(O)cc3[o+]c2-c2cc(O)c(O)c(O)c2)C(O)C(O)C1O (stereo not shown) [Example 2 (D3G), delphinidin-3-O-glucoside] | 12.5 µM | 99 µM
C[C@@H]1O[C@@H](OC[C@H]2O[C@@H](Oc3c(-c4ccc(O)c(O)c4)oc4cc(O)cc(O)c4c3=O)[C@H](O)[C@@H](O)[C@@H]2O)[C@H](O)[C@H](O)[C@H]1O [Rutin, rutin, reference compound] | 9 µM | 
N=C(N)NN [Aminoguanidine, aminoguanidine, reference compound] |  | 1200 µM
OCC1OC(Oc2cc3c(O)cc(O)cc3[o+]c2-c2ccc(O)c(O)c2)C(O)C(O)C1O (stereo not shown) [Example 2 (C3G), cyanidin-3-O-glucoside] | 4.7 µM | 132 µM
CC1OC(OCC2OC(Oc3cc4c(O)cc(O)cc4[o+]c3-c3ccc(O)c(O)c3)C(O)C(O)C2O)C(O)C(O)C1O (stereo not shown) [Example 2 (C3R), cyanidin-3-O-rutinoside] | 2.5 µM | 154 µM
